Measured values as given in paper PMC9090415, “Discovery of small molecule inhibitors of Plasmodium falciparum apicoplast DNA polymerase” (Journal of Enzyme Inhibition and Medicinal Chemistry, 2022).

Target: P. falciparum apicoplast DNA polymerase (Pf-apPOL) (Plasmodium falciparum, UniProt Q8ILY1)
Experiment: Fluorescence-based high-throughput DNA polymerase assay (molecular beacon), primary screen and dose-response
Format: biochemical
Conditions: for DNA Pol: 90 min, 10 µM; for % inhibition apPOL 180' 2.5 / % inhibition apPOL 180' 5 / % inhibition apPOL 180' 10 / % inhibition apPOL 180' 20 / % inhibition apPOL 180' 40 / % inhibition apPOL 180' 80: read at 180'
Summary of the method: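 Single-point screening used 10 µM compound with 20 nM polymerase, 20 nM hairpin substrate and 6 µM dNTPs for 90 min at 25 °C. Confirmatory titrations (2.5–80 µM) followed fluorescence at three times, and IC50 was derived from a fit including a cooperativity term n.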

Chain of P. falciparum apicoplast DNA polymerase (Pf-apPOL) (Q8ILY1 entry or part of it): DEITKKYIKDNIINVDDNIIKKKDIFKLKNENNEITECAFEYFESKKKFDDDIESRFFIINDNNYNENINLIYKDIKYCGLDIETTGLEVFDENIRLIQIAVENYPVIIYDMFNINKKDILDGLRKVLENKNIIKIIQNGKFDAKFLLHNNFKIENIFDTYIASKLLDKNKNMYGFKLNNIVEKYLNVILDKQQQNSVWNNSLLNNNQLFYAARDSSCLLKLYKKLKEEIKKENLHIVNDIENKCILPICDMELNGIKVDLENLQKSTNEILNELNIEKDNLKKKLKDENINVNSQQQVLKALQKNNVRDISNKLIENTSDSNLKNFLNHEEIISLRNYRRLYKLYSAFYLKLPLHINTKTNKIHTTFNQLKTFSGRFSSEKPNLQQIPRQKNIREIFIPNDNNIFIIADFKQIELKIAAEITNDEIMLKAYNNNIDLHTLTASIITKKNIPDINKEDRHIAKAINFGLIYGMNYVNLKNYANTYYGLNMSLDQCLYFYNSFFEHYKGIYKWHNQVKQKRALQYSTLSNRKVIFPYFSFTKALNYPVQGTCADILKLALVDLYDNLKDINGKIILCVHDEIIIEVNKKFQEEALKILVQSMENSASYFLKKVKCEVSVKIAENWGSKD

N#CC(=NNc1cc(C(F)(F)F)cc(C(F)(F)F)c1)C(=O)c1ccco1 [KU0264276]
DNA Pol ("DNA Pol" of the 186 hits list (screen value)): 81
% inhibition Apo pol 10' (DRC-1, concentration 2.5): 7.413%
% inhibition Apo pol 10' (DRC-1, concentration 5): 17.153%
% inhibition Apo pol 10' (DRC-1, concentration 10): 33.1185%
% inhibition Apo pol 10' (DRC-1, concentration 20): 55.9301%
% inhibition Apo pol 10' (DRC-1, concentration 40): 90.9847%
% inhibition Apo pol 10' (DRC-1, concentration 80): 81.2188%
% inhibition Apol 90' (DRC-1, concentration 2.5): 13.8039%
% inhibition Apol 90' (DRC-1, concentration 5): 15.4083%
% inhibition Apol 90' (DRC-1, concentration 10): 41.225%
% inhibition Apol 90' (DRC-1, concentration 20): 52.5694%
% inhibition Apol 90' (DRC-1, concentration 40): 86.2656%
% inhibition Apol 90' (DRC-1, concentration 80): 77.3906%
% inhibition apPOL 180' (DRC-1, concentration 2.5): 13.2581%
% inhibition apPOL 180' (DRC-1, concentration 5): 8.8259%
% inhibition apPOL 180' (DRC-1, concentration 10): 37.6364%
% inhibition apPOL 180' (DRC-1, concentration 20): 41.4937%
% inhibition apPOL 180' (DRC-1, concentration 40): 81.9249%
% inhibition apPOL 180' (DRC-1, concentration 80): 71.4519%
% inhibition Apo pol 5' (DRC-2, concentration 2.5): 6%
% inhibition Apo pol 5' (DRC-2, concentration 5): 12%
% inhibition Apo pol 5' (DRC-2, concentration 10): 27%
% inhibition Apo pol 5' (DRC-2, concentration 20): 47%
% inhibition Apo pol 5' (DRC-2, concentration 40): 57%
% inhibition Apo pol 5' (DRC-2, concentration 80): 58%
% inhibition Apol 40' (DRC-2, concentration 2.5): 8%
% inhibition Apol 40' (DRC-2, concentration 5): 15%
% inhibition Apol 40' (DRC-2, concentration 10): 34%
% inhibition Apol 40' (DRC-2, concentration 20): 59%
% inhibition Apol 40' (DRC-2, concentration 40): 69%
% inhibition Apol 40' (DRC-2, concentration 80): 72%
% inhibition ApPOL 90' (DRC-2, concentration 2.5): 4.34%
% inhibition ApPOL 90' (DRC-2, concentration 5): 14%
% inhibition ApPOL 90' (DRC-2, concentration 10): 32%
% inhibition ApPOL 90' (DRC-2, concentration 20): 59%
% inhibition ApPOL 90' (DRC-2, concentration 40): 71%
% inhibition ApPOL 90' (DRC-2, concentration 80): 74%
% inhibition apPOL 180' (DRC-2, concentration 2.5): -0.774%
% inhibition apPOL 180' (DRC-2, concentration 5): 4.73%
% inhibition apPOL 180' (DRC-2, concentration 10): 22%
% inhibition apPOL 180' (DRC-2, concentration 20): 52%
% inhibition apPOL 180' (DRC-2, concentration 40): 67%
% inhibition apPOL 180' (DRC-2, concentration 80): 74%
DNA Pol (primary screen value, DNA Pol): 81

Cc1cccc(-c2noc(C(=O)NNC(=O)C(Cl)(Cl)Cl)n2)c1 [KU0266208]
DNA Pol (186 hits, DNA Pol (screen value), unit not given): 74
DNA Pol ('DNA Pol' (screen value), unit not given): 74
% inhibition Apo pol 10' 2.5 (DRC-1, read at 10', concentration 2.5): 9.201%
% inhibition Apo pol 10' 5 (DRC-1, read at 10', concentration 5): 9.396%
% inhibition Apo pol 10' 10 (DRC-1, read at 10', concentration 10): 14.6387%
% inhibition Apo pol 10' 20 (DRC-1, read at 10', concentration 20): 23.1394%
% inhibition Apo pol 10' 40 (DRC-1, read at 10', concentration 40): 47.3506%
% inhibition Apo pol 10' 80 (DRC-1, read at 10', concentration 80): 74.0124%
% inhibition Apol 90' 2.5 (DRC-1, read at 90', concentration 2.5): -1.588%
% inhibition Apol 90' 5 (DRC-1, read at 90', concentration 5): -0.4833%
% inhibition Apol 90' 10 (DRC-1, read at 90', concentration 10): 4.634%
% inhibition Apol 90' 20 (DRC-1, read at 90', concentration 20): 14.9894%
% inhibition Apol 90' 40 (DRC-1, read at 90', concentration 40): 39.8547%
% inhibition Apol 90' 80 (DRC-1, read at 90', concentration 80): 66.9528%
% inhibition apPOL 180' 2.5 (DRC-1, concentration 2.5): -5.775%
% inhibition apPOL 180' 5 (DRC-1, concentration 5): -5.2438%
% inhibition apPOL 180' 10 (DRC-1, concentration 10): -0.4994%
% inhibition apPOL 180' 20 (DRC-1, concentration 20): 8.812%
% inhibition apPOL 180' 40 (DRC-1, concentration 40): 34.7216%
% inhibition apPOL 180' 80 (DRC-1, concentration 80): 64.1117%
% inhibition Apo pol 5' (DRC-2, concentration 10): 11%
% inhibition Apol 40' (DRC-2, concentration 10): 11%
% inhibition Apol 40' (DRC-2, concentration 20): 24%
% inhibition ApPOL 90' (DRC-2, concentration 20): 24%
% inhibition Apo pol 5' 2.5 (DRC-2, read at 5', concentration 2.5): 4.48%
% inhibition Apo pol 5' 5 (DRC-2, read at 5', concentration 5): 5.63%
% inhibition Apo pol 5' 10 (DRC-2, read at 5', concentration 10): 11%
% inhibition Apo pol 5' 20 (DRC-2, read at 5', concentration 20): 21%
% inhibition Apo pol 5' 40 (DRC-2, read at 5', concentration 40): 36%
% inhibition Apo pol 5' 80 (DRC-2, read at 5', concentration 80): 49%
% inhibition Apol 40' 2.5 (DRC-2, read at 40', concentration 2.5): 4.33%
% inhibition Apol 40' 5 (DRC-2, read at 40', concentration 5): 4.64%
% inhibition Apol 40' 10 (DRC-2, read at 40', concentration 10): 11%
% inhibition Apol 40' 20 (DRC-2, read at 40', concentration 20): 24%
% inhibition Apol 40' 40 (DRC-2, read at 40', concentration 40): 44%
% inhibition Apol 40' 80 (DRC-2, read at 40', concentration 80): 58%
% inhibition ApPOL 90' 2.5 (DRC-2, read at 90', concentration 2.5): 3%
% inhibition ApPOL 90' 5 (DRC-2, read at 90', concentration 5): 2.46%
% inhibition ApPOL 90' 10 (DRC-2, read at 90', concentration 10): 10%
% inhibition ApPOL 90' 20 (DRC-2, read at 90', concentration 20): 24%
% inhibition ApPOL 90' 40 (DRC-2, read at 90', concentration 40): 45%
% inhibition ApPOL 90' 80 (DRC-2, read at 90', concentration 80): 60%
% inhibition apPOL 180' 2.5 (DRC-2, concentration 2.5): -1%
% inhibition apPOL 180' 5 (DRC-2, concentration 5): 1.1%
% inhibition apPOL 180' 10 (DRC-2, concentration 10): 5.71%
% inhibition apPOL 180' 20 (DRC-2, concentration 20): 20%
% inhibition apPOL 180' 40 (DRC-2, concentration 40): 42%
% inhibition apPOL 180' 80 (DRC-2, concentration 80): 59%
